Holding throughout (type): cell-based
The subject of one test is Bacillus subtilis. Kind of test: MIC determination / antibacterial activity, agar diffusion method. The following applies: for antimicrobial efficacy / antibacterial activity: B. subtilis, result in words. The source says: (§1) Antifungal activities were studied qualitatively by agar diffusion tests according to the literature (Stuttgart, D. A. V., European Pharmacopoeia, 3rd ed.1997, 13, 118; Afonin, S.; Glaser, R. W.; Berditchevskaia, M.; Wadhwani, P.; Guhrs, K. H.; Mollmann, U.; Perner, A.; Ulrich, A. S. Chembiochem. 2003, 4, (11), 1151-1163; Standards, N. C. f. C. L., Reference Method for Broth Dilution Susceptibility Testing of Filamentous Fungi; Approved Standard. M38-A, Wayne, PA, USA, NCCls 2002, 22) and quantitatively by determination of minimal inhibitory concentration (MIC) according to the NCCLS guidelines using the broth microdilution method. Fifty microliters of the test compound solution in methanol were serially diluted by factor two with the culture medium (RPMI 1640 with L-glutamine, MOPS and without sodium bicarbonate, LONZA Verviers SPRL, Belgium). Then, the wells were inoculated with 50 µL of the test organism to give a final concentration of 6x10^3 CFU mL^-1. After incubation of the microtiter plates at 37°C (Aspergillus terreus) for 24 h, the MIC-values were read with a Nepheloscan Ascent 1.4 automatic plate reader (Lab systems, Vantaa, Finnland) as the lowest dilution of compound allowing no visible growth. The MIC for Fusarium oxysporum and Bacillus subtilis was determined by the agar diffusion method. Fifty microliters of each of the 12 serial twofold dilutions were filled in agar (malt extract agar from Roth, Karlsruhe, Germany; seeded with 0.5 mL of a pretested mycelial solution) holes of 9 mm in diameter. After incubation for 24 h the MIC was read as the lowest concentration giving an inhibition zone.

Another test has as its system Aspergillus terreus. The test is described as follows: MIC determination, broth microdilution method (NCCLS guidelines). As to conditions: A. terreus; for antimicrobial efficacy: result in words; for MIC: broth microdilution, 37°C, 24 h.
Description: as §1
A general note: Dilution methods test growth across graded concentrations, often in twofold steps.

For the next test, the system named is Fusarium oxysporum. The test is described as follows: MIC determination, agar diffusion method. As to conditions: 24 h.
Description: as §1, with “Fifty microliters of each of the 12 serial twofold dilutions were filled in agar (malt extract agar from Roth, Karlsruhe, Germany; seeded with 0.5 mL of a pretested mycelial solution) holes of 9 mm in diameter. After incubation for 24 h the MIC was read as the lowest concentration giving an inhibition zone.” left out
(A growth-free zone around the sample is the usual read-out of agar diffusion tests.)

A further test deals with HUVEC. Kind of test: Antiproliferative assay (methylene blue staining). As to conditions: Homo sapiens. As for the experimental part:
(§2) Antiproliferative and Cytotoxic Assays: Cells and culture conditions. Cells of HUVEC (ATCC CRL-1730), K-562 (DSM ACC 10) and HeLa (DSM ACC 57) were cultured in DMEM (CAMBREX 12-[…]), RPMI 1640 (CAMBREX 12-[…]) and RPMI 1640 (CAMBREX 12-[…]) respectively. All cells were grown in the appropriate cell culture medium supplemented with 10 mL L^-1 ultraglutamine 1 (Cambrex 17-[…]/U1), 500 μ[…] gentamicin sulfate (CAMBREX 17-518Z), and 10 % heat inactivated fetal bovine serum (PAA A15-144) at 37 °C in high density polyethylene flasks (NUNC 156340). Antiproliferative assay. The test substances were dissolved in DMSO before being diluted in DMEM. The adherent cells were harvested at the logarithmic growth phase after soft trypsinization, using 0.25 % trypsin in PBS containing 0.02 % EDTA (Biochrom KG L 2163). For each experiment, approximately 10.000 cells were seeded with 0.1 mL culture medium per well of the 96-well microplates (NUNC 167008). Method of evaluation. For estimating the influence of chemical compounds on cell proliferation of K-562, the numbers of viable cells present in multiwell plates were determined via CellTiter-Blue® assay. The indicator dye resazurin was used to measure the metabolic capacity of cells as an indicator of cell viability. […] The optical densities were measured at 660 nm in SUNRISE microplate reader (TECAN). […]

The next test has as its system K-562. The test is described as follows: Antiproliferative assay (CellTiter-Blue). As to conditions: Homo sapiens, K562; read-out: Gl50 (K-562). As to the method:
as §2
On the technique in general: Resazurin is reduced to fluorescent resorufin, in cell work by metabolically active cells.

Another test deals with HeLa. Kind of test: Cytotoxic assay (methylene blue staining). The following applies: Homo sapiens, 72 hours incubation, read-out: Cytotoxicity CC50 (HeLa). As for the experimental part:
Antiproliferative and Cytotoxic Assays: Cells and culture conditions. Cells of HUVEC (ATCC CRL-1730), K-562 (DSM ACC 10) and HeLa (DSM ACC 57) were cultured in DMEM (CAMBREX 12-614F), RPMI 1640 (CAMBREX 12-167F) and RPMI 1640 (CAMBREX 12-167F) respectively. All cells were grown in the appropriate cell culture medium supplemented with 10 mL L^-1 ultraglutamine 1 (Cambrex 17-605E/U1), 500 µL L^-1 gentamicin sulfate (CAMBREX 17-518Z), and 10 % heat inactivated fetal bovine serum (PAA A15-144) at 37 °C in high density polyethylene flasks (NUNC 156340).
Cytotoxic assay. For the cytotoxic assay, HeLa cells were pre-incubated for 48 hours without the test substances. The dilutions of the compounds were carried out carefully on the subconfluent monolayers of HeLa cells after the pre-incubation time. Cells were incubated with dilutions of the test substances for 72 hours at 37 °C in a humidified atmosphere and 5 % CO2.
Method of evaluation. For estimating the influence of chemical compounds on cell proliferation of K-562, the numbers of viable cells present in multiwell plates were determined via CellTiter-Blue® assay. The indicator dye resazurin was used to measure the metabolic capacity of cells as an indicator of cell viability. […] The optical densities were measured at 660 nm in SUNRISE microplate reader (TECAN). […]

[1] abbreviates: Aspergillus terreus, read-out: MIC.

Experimental findings from patent publication EP2230235A1, “Botryosphaerones, novel depsidones and their use as medicaments” (Leibniz-Institut für Naturstoff-Forschung und …, priority 2009, dated 2010) are described below.

In brackets after ≈: the same amount, converted by molar mass. Like-named read-outs stand apart in the source and are kept apart here.

As usually defined, the MIC is the smallest concentration in the dilution series that meets the test's criterion for growth inhibition. By CC50 is commonly meant the concentration that lowers cell viability or growth by half.

Regarding botryosphaerone D [Compound 4], in the test with Bacillus subtilis, the “antimicrobial efficacy / antibacterial activity” value is recorded as “antibacterial activity”.
Turning to `Cc1cc(O)c(C)c2c1Oc1c(CO)c(O)cc(C)c1C(=O)O2` [Compound 3, botryosphaerone C], the “antimicrobial efficacy / antibacterial activity” value in the test with Bacillus subtilis is on record as “antibacterial activity”. The compound also displayed an MIC in the test with Bacillus subtilis (Bacillus subtilis, 24 h) of 400 µg/mL (≈ 1260 µM). Besides, the antibacterial activity entry with Bacillus subtilis (Bacillus subtilis, agar diffusion assays, 400 µg mL^-1) was “antibacterial activity”.
With `Cc1cc(O)cc2c1Oc1c(C=O)c(O)cc(C)c1C(=O)O2` [Compound 1, botryosphaerone A], the antimicrobial efficacy entry in the test with Aspergillus terreus is reported as “active”. Moreover, the results for the MIC in the test on Aspergillus terreus (setting [1]) and against Fusarium oxysporum were 7.81 µg/mL (≈ 26 µM) and 57.5 µg/mL (≈ 191 µM), respectively. The “antimicrobial efficacy / antibacterial activity” value with Bacillus subtilis was “active”. Further, the values for the GI50 with HUVEC and in the test on K-562 were 1.67 µM and 0.84 µM, respectively. For the same compound, the CC50 in the test on HeLa is 97 µM.
Turning to `Cc1cc(O)c(C)c2c1Oc1c(C=O)c(O)cc(C)c1C(=O)O2` [Compound 2, Botryosphaerone B], the antimicrobial efficacy result in the test with Aspergillus terreus is recorded as “active”. For the same compound, the MIC with Aspergillus terreus (setting [1]) is 15.6 µg/mL (≈ 49.7 µM); against Fusarium oxysporum it was 75 µg/mL (≈ 239 µM). For the same compound, the “antimicrobial efficacy / antibacterial activity” value in the test with Bacillus subtilis is “active”. Besides, the GI50 turned out to be 0.07 µM with HUVEC and 0.003 µM with K-562. For the same compound, the half-maximal cytotoxic concentration (CC50) in the test on HeLa was 36.4 µM.
Compound `C[C@@H]1[C@H](O)[C@@H](C)/C=C/C=C/CC/C=C/C=C/C=C/C=C/C(O[C@H]2O[C@H](C)[C@@H](O)[C@H](N)[C@@H]2O)CC2O[C@](O)(CC(O)C(O)CCC(O)CC(O)CC(O)CC(=O)O[C@H]1C)CC(O)C2C(=O)O` (stereo partly shown) [nystatin, reference compound] showed a minimal inhibitory concentration (MIC) with Aspergillus terreus of 12.50 µg/mL (≈ 13.5 µM).
